Tested on: P12-Ichikawa
Test: cell viability relative to DMSO control; higher = less cytotoxic
Conditions: 48 h
In short: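 In 1536-well plates, 5 μl of leukemia cells were seeded per well: 500 cells/well for NOMO1 or SEM and 1000 cells/well for P12-Ichikawa. Each line had first been adapted for at least four passages in each medium. Library compounds in DMSO were pin-dosed at 11 threefold concentrations between 47 μM and 0.79 nM, and CellTiter-Glo One luminescence was read after 48 h at 37°C. Viability is a per-plate percentage relative to DMSO wells, with cell-free wells as background.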

[1] = HPLM + 10% dialyzed FBS, 0.000781 µM
[2] = HPLM + 10% dialyzed FBS, 0.00234 µM
[3] = HPLM + 10% dialyzed FBS, 0.00702 µM
[4] = HPLM + 10% dialyzed FBS, 0.0211 µM
[5] = HPLM + 10% dialyzed FBS, 0.0632 µM
[6] = HPLM + 10% dialyzed FBS, 0.19 µM
[7] = HPLM + 10% dialyzed FBS, 0.569 µM
[8] = HPLM + 10% dialyzed FBS, 1.71 µM
[9] = HPLM + 10% dialyzed FBS, 5.12 µM
[10] = HPLM + 10% dialyzed FBS, 15.4 µM
[11] = HPLM + 10% dialyzed FBS, 46.1 µM
[12] = RPMI 5 mM glucose + 10% FBS, 0.000781 µM
[13] = RPMI 5 mM glucose + 10% FBS, 0.00234 µM
[14] = RPMI 5 mM glucose + 10% FBS, 0.00702 µM
[15] = RPMI 5 mM glucose + 10% FBS, 0.0211 µM
[16] = RPMI 5 mM glucose + 10% FBS, 0.0632 µM
[17] = RPMI 5 mM glucose + 10% FBS, 0.19 µM
[18] = RPMI 5 mM glucose + 10% FBS, 0.569 µM
[19] = RPMI 5 mM glucose + 10% FBS, 1.71 µM
[20] = RPMI 5 mM glucose + 10% FBS, 5.12 µM
[21] = RPMI 5 mM glucose + 10% FBS, 15.4 µM
[22] = RPMI 5 mM glucose + 10% FBS, 46.1 µM
[23] = RPMI 5 mM glucose + 10% dialyzed FBS, 0.000781 µM
[24] = RPMI 5 mM glucose + 10% dialyzed FBS, 0.00234 µM
[25] = RPMI 5 mM glucose + 10% dialyzed FBS, 0.00702 µM
[26] = RPMI 5 mM glucose + 10% dialyzed FBS, 0.0211 µM
[27] = RPMI 5 mM glucose + 10% dialyzed FBS, 0.0632 µM
[28] = RPMI 5 mM glucose + 10% dialyzed FBS, 0.19 µM
[29] = RPMI 5 mM glucose + 10% dialyzed FBS, 0.569 µM
[30] = RPMI 5 mM glucose + 10% dialyzed FBS, 1.71 µM
[31] = RPMI 5 mM glucose + 10% dialyzed FBS, 5.12 µM
[32] = RPMI 5 mM glucose + 10% dialyzed FBS, 15.4 µM
[33] = RPMI 5 mM glucose + 10% dialyzed FBS, 46.1 µM

Row | Structure (SMILES) | cell viability [1] [%] | cell viability [2] [%] | cell viability [3] [%] | cell viability [4] [%] | cell viability [5] [%] | cell viability [6] [%] | cell viability [7] [%] | cell viability [8] [%] | cell viability [9] [%] | cell viability [10] [%] | cell viability [11] [%] | cell viability [12] [%] | cell viability [13] [%] | cell viability [14] [%] | cell viability [15] [%] | cell viability [16] [%] | cell viability [17] [%] | cell viability [18] [%] | cell viability [19] [%] | cell viability [20] [%] | cell viability [21] [%] | cell viability [22] [%] | cell viability [23] [%] | cell viability [24] [%] | cell viability [25] [%] | cell viability [26] [%] | cell viability [27] [%] | cell viability [28] [%] | cell viability [29] [%] | cell viability [30] [%] | cell viability [31] [%] | cell viability [32] [%] | cell viability [33] [%]
1 | CC1(C)OC/2=C(\[C@H](NCC3=CC=CC=C3)[C@@H]1O)C(=O)C4=CC=CC=C4C2=O | 102 | 106 | 107 | 104 | 106 | 108 | 102 | 94 | 96.4 | 47.8 | 6.77 | 100 | 102 | 102 | 115 | 96.4 | 99.8 | 98.8 | 88.3 | 71.8 | 18.7 | 6.26 | 98.5 | 94.9 | 95.1 | 101 | 101 | 101 | 101 | 96.7 | 75.8 | 54.6 | 5.89
2 | N=C(N)c1ccc(OCCCCCOc2ccc(C(=N)N)cc2)cc1 | 101 | 108 | 108 | 110 | 111 | 102 | 101 | 103 | 106 | 97.1 | 79.5 | 104 | 109 | 109 | 114 | 116 | 111 | 107 | 104 | 117 | 85.3 | 62.8 | 101 | 115 | 123 | 125 | 118 | 114 | 118 | 108 | 107 | 102 | 81.5
3 | COc1ccc2cc(-c3[nH]c(-c4ccc([S+](C)[O-])cc4)nc3-c3ccncc3)ccc2c1 (stereo not given) | 113 | 114 | 116 | 105 | 117 | 119 | 124 | 120 | 123 | 112 | 99.3 | 105 | 112 | 118 | 120 | 130 | 127 | 128 | 130 | 142 | 120 | 80.7 | 104 | 113 | 105 | 118 | 119 | 117 | 124 | 128 | 120 | 122 | 57.6
4 | Cc1cnc(Nc2ccc(OCCN3CCCC3)cc2)nc1Nc1cccc([S+](=O)([O-])NC(C)(C)C)c1 | 100 | 108 | 110 | 110 | 115 | 111 | 119 | 114 | 112 | 108 | 112 | 110 | 116 | 110 | 119 | 120 | 116 | 120 | 117 | 110 | 108 | 112 | 91.8 | 101 | 109 | 106 | 117 | 109 | 111 | 118 | 110 | 110 | 97.6
5 | Cn1cc(-c2ccncc2)c(-c2ccc(OCc3ccc4ccccc4n3)cc2)n1 | 120 | 121 | 122 | 121 | 126 | 123 | 115 | 118 | 109 | 91.5 | 75.5 | 121 | 127 | 120 | 132 | 122 | 121 | 120 | 120 | 104 | 65.8 | 53.7 | – | – | – | – | – | – | – | – | – | – | –
6 | CCOC(=O)c1ccc(C#Cc2ccc3c(c2)C(C)(C)CCS3)nc1 | 98.6 | 108 | 102 | 105 | 105 | 118 | 110 | 110 | 108 | 107 | 78.7 | 95.2 | 96.1 | 106 | 109 | 108 | 106 | 101 | 106 | 106 | 110 | 94.5 | 98.8 | 99.9 | 109 | 110 | 108 | 107 | 102 | 113 | 104 | 96.1 | 102
7 | CN1C(=O)COc2c(C(=O)NC3CN4CCC3CC4)cc(Cl)cc21 (stereo not given) | 87.1 | 107 | 104 | 105 | 109 | 109 | 99.6 | 96.9 | 94.2 | 107 | 111 | 95 | 115 | 110 | 119 | 132 | 73 | 66.4 | 86.1 | 95.7 | 95.6 | 121 | 95.8 | 98.4 | 101 | 97.8 | 101 | 95.4 | 98.9 | 96.9 | 92.6 | 89.2 | 99
